Legend:
exportin1 = target: T1, exportin1 (Homo sapiens, UniProt O14980); assay: Localization of exportin1 substrates (p65, APC, NES-GFP); assay type: cell-based; settings: HeLa cells
T1 construct: endogenous in cells; host or cells: HeLa
Protocol: Cells were seeded on glass cover slips for 36 h. Following the indicated treatments, they were fixed with 4% PFA for 15 min, washed with phosphate-buffered saline (PBS) and incubated in PBS containing 10% goat serum for 1 h at room temperature, followed by 2 h incubation with the indicated primary antibody. Following extensive wash with PBS, the fixed cells were incubated with the relevant secondary antibody for 1 h, washed and mounted. Images were acquired using Zeiss LSM 700 confocal microscope (Zeiss, Oberkochen, Germany).

autophagy = assay: Autophagy (LC3 lipidation, RFP-GFP-LC3 autophagic flux); assay type: cell-based, human; settings: LC3 Western blot and GFP-RFP-LC3 autophagic flux, HeLa cells
Protocol: Cells were washed twice with ice cold PBS and scraped into lysis buffer (50 mM Tris-HCl, pH 7.4, 130 mM NaCl, 0.5% NP-40) supplemented with freshly added protease inhibitor cocktail, 5 mM ATP, 10 mM iodoacetamide, and 5 mM N-ethyl maleimide. Protein concentration was measured by the BCA assay according to the manufacturer's instructions (Pierce, Rockford, IL). 30 μg of cellular protein were resolved via SDS-PAGE, transferred to a nitrocellulose membrane and immunoblotted with the appropriate antibody. Cells stably expressing the fusion of RFP-GFP-LC3 were treated as described and were visualized live, using high-throughput fluorescence microscopy (IXM-C, Molecular Devices) under controlled environment (21% O2, 5% CO2, 37° C.). Analysis of autophagic flux was made based on the differential signal in the green and red channels, as previously described [[…], et al. (2009). Cell 136, 521-534] Due to the instability of GFP in acidic pH, only RFP retains its fluorescence in the acidic lysosome, while both are visible in the autophagosome. The RFP: GFP puncta ratio is indicating the extent of autophagy activation, or flux. The figure presents mean+/-SD and Student's T-Test p-values of three replicates.

HeLa cells [1] = assay: Degradation of radiolabeled proteins; assay type: cell-based, human; settings: short-term starvation
Protocol: Cells were labeled with [^35S]-methionine and cysteine (20 μCi/ml) for 16 h. This was followed by extensive washing and further incubation in a medium containing 2 mM of the two unlabeled amino acids for 8 h. Degradation rates were assessed by determining the release of labeled amino acids to the incubation medium relative to the radioactivity remained in the cellular proteins (using Trichloroacetic acid precipitation to separate between the two) [R. Gropper et al., Biomed Biochim Acta 50, 321-332 (1991)]. The figure presents mean+/−SD and Student's T-Test p-values of three replicates.

HeLa cells [2] = assay: Amino acids level measurement (LC-MS); assay type: cell-based, human
Protocol: Metabolic analysis was carried out as previously described [G. M. MacKay et al., 1st Ed. (Elsevier Inc., 2015)]. Briefly, cells were rapidly washed 3 times with ice-cold PBS and extracted with an aqueous solution of 50% Methanol, and 30% Acetonitrile. Samples were centrifuged at 16,000×g for 10 min at 4° C., and the supernatants were analyzed using HPLC-MS (Q-Exactive Orbitrap Mass Spectrometer (Thermo Scientific) coupled to Thermo Scientific UltiMate 3000 HPLC system). The HPLC setup consisted of a ZIC-PHILIC column (SeQuant, 150×2.1 mm, 5 μm, Merck) with a ZIC-PHILIC guard column (SeQuant, 20×2.1 mm). The aqueous mobile phase solvent was 20 mM ammonium carbonate adjusted to pH 9.4 with 0.1% ammonium hydroxide. The organic mobile phase was acetonitrile. Amino acids and other metabolites were separated over a 15 min linear gradient from 80% organic to 80% aqueous. The column temperature was 45° C., the flow rate 200 μl/min, and the run time 27 min. All metabolites were detected across a mass range of 75-1,000 m/z using the Q-Exactive mass spectrometer at a resolution of 35,000 (at 200 m/z) with electrospray ionization and polarity switching mode. Mass accuracy obtained for all metabolites was below 5 ppm. Data were acquired with Thermo Xcalibur software. The peak areas of different amino acids were determined using Thermo TraceFinder software through which metabolites were identified by the exact mass of the singly charged ion and the known retention time on the HPLC column. Commercially available standard compounds had been analyzed before to determine ion masses and retention times on the ZIC-PHILIC column. Protein quantitation based on the Lowry method was performed for normalization. The figure presents mean+/−SD of three replicates.

T1 sequence (O14980 whole entry): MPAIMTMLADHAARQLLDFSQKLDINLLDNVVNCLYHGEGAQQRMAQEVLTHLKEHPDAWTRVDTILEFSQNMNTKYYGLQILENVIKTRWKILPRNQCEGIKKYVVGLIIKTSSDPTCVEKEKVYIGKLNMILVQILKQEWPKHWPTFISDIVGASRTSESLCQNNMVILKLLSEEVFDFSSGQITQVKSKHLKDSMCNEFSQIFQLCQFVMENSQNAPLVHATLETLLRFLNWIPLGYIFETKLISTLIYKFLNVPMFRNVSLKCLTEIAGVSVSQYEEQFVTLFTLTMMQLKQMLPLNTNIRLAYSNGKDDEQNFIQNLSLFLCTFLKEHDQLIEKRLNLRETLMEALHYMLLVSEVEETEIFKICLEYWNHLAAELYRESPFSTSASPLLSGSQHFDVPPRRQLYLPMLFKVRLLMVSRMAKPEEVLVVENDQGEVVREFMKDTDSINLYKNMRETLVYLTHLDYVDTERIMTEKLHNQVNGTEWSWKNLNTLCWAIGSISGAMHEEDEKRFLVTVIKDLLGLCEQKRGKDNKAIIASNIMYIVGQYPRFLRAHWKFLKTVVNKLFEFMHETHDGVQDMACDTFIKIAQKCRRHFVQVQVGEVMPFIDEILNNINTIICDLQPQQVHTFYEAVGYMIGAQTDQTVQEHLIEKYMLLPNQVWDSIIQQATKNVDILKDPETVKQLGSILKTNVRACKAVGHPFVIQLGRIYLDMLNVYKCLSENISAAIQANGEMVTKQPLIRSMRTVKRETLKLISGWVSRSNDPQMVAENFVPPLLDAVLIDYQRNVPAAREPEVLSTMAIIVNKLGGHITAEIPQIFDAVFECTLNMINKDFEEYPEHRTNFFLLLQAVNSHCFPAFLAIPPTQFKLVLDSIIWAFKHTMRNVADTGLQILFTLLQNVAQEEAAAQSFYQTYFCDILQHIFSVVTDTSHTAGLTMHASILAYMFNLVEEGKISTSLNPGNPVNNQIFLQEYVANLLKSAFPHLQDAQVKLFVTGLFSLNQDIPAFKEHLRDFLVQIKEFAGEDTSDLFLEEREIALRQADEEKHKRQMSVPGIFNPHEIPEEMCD

CCC(=C/[C@H](C)C/C=C/C(C)=C/[C@@H](C)C(=O)[C@@H](C)[C@H](O)[C@@H](C)C/C(C)=C/C(=O)O)/C=C/[C@@H]1OC(=O)C=C[C@@H]1C [Leptomycin B]
nuclear export/localization of exportin1 substrates p65 subunit of NF-κB and APC (exportin1): inhibited nuclear export of two known substrates of exportin1 | localization of GFP fused to a nuclear export signal (NES) (exportin1; 8 h): nuclear accumulation of GFP fused to a nuclear export signal (NES) | autophagy under starvation (autophagy): not inhibited | protein breakdown (degradation of radiolabeled proteins) (HeLa cells [1]): near annulment of protein breakdown stimulated by short-term starvation | gain in amino acids produced by Torin1 (HeLa cells [2]; Torin1 plus LMB): significantly inhibited the gain in amino acids produced by Torin1 | level of Glu (HeLa cells [2]; addition of LMB to Torin1-treated cells): unaffected
